Legend:
[1] = system: spontaneously hypertensive male rats, strain MHS; assay: Anti-hypertensive activity in spontaneously hypertensive rats (MHS), blood pressure and heart rate measured at the tail; type: in vivo, rat (spontaneously hypertensive; conditions: for Change in BP, 1st day, 1 hr after dose / Change in HR, 1st day, 1 hr after dose / Change in BP, 1st day, 5 hrs after dose / Change in HR, 1st day, 5 hrs after dose / Change in BP, 4th day, 1 hr after dose / Change in HR, 4th day, 1 hr after dose / Change in BP, 4th day, 5 hrs after dose / Change in HR, 4th day, 5 hrs after dose: mean of 4 animals
Procedure: Four spontaneously hypertensive male rats, strains MHS, weighing 250-300 g for each group were used.
The animals were treated for four consecutive days. Drugs were administered by gastric gavage, suspended in 5% arabic gum (0.2 ml/100 g body weight). Blood pressure (BP) and heart rate (HR) were measured at the tail by BP Recorder W+W. Blood pressure and heart rate were measured on the 1st and 4th day of treatment 1 hour before and 1 and 5 hours after drug administration.
*Data of LD50 from the literature. In Tables 1 and 2 are reported
the results of the study of the activity of compounds 355/1165 and
355/1166 upon the BP and HR (measured indirectly by means of a tail cuff)
of spontaneous hypertensive rats, MHS strain (4 rats each group). The
compounds were given orally, once a day for 4 consecutive days.

[2] = Acute (orientative) oral toxicity in mice; conditions: mouse, in vivo
From the text: The male mice for each group were orally treated with drugs at different dose levels for the determination of orientative toxicity.

[3] = system: spontaneously hypertensive rats (Okamoto strain); assay: Anti-hypertensive activity in conscious spontaneously hypertensive rats (Okamoto), carotid artery catheter; type: in vivo, rat (spontaneously hypertensive; conditions: for Change in blood pressure after treatment, 30' / Change in heart rate after treatment, 30' / Change in blood pressure after treatment, 60' / Change in heart rate after treatment, 60' / Change in blood pressure after treatment, 120' / Change in heart rate after treatment, 120' / Change in blood pressure after treatment, 240' / Change in heart rate after treatment, 240' / Change in blood pressure after treatment, 360' / Change in heart rate after treatment, 360': mean of 6 animals; for Effect on heart rate: oral (Table 4)
Procedure: Blood pressure recordings were made in conscious hypertensive unrestrained rats weighing approximately 300 g, via a catheter cronically inserted into the left common carotid artery. Implantation of arterial cannula was made under sodium pentobarbital anesthesia (50 mg/kg i.p.). A 1 cm long incision was made through the previously shaved ventral surface of the neck and the tissues overlying the trachea parted by blunt dissection to reveal the carotid artery. The polyethylene catheter used was made with PE 50 tubing, previously filled with saline containing 250 I.U./ml heparin. The tip of the cannula was pushed at least 2 cm inside the vessel toward the heart. The cannula was then firmly tied and passed beneath the skin to emerge from a small incision in the back of the neck. During the postoperative period and before the start of each recording session, the cannula was flushed through daily with saline containing heparin (250 U.I./ml). The experiments were performed two days after surgery. Drugs were administered by gastric gavage.

[4] = MHS rats, 0.5 mg/kg os, 1st day
[5] = MHS rats, 0.5 mg/kg os, 4th day

SMILES: CN1CC(CC(C#N)C(N)=O)C2Cc3cccc4[nH]cc(c34)CC21 (stereo not drawn) [355/1165, 2-Cyano-3-[trans-5(10→9)abeo-6-methyl-ergoline-8β]-propionamide]
- Change in BP, 1st day, 1 hr after dose [1, 4]: -13 mmHg
- Change in HR, 1st day, 1 hr after dose [1, 4]: -25 b/min
- Change in BP, 1st day, 5 hrs after dose [1, 4]: -17 mmHg
- Change in HR, 1st day, 5 hrs after dose [1, 4]: -25 b/min
- Change in BP, 4th day, 1 hr after dose [1, 5]: -17 mmHg
- Change in HR, 4th day, 1 hr after dose [1, 5]: -30 b/min
- Change in BP, 4th day, 5 hrs after dose [1, 5]: -3 mmHg
- Change in HR, 4th day, 5 hrs after dose [1, 5]: -35 b/min
- Change in BP, 1st day, 1 hr after dose ([1]; MHS rats, 1 mg/kg os, 1st day): -15 mmHg
- Change in HR, 1st day, 1 hr after dose ([1]; MHS rats, 1 mg/kg os, 1st day): -20 b/min
- Change in BP, 1st day, 5 hrs after dose ([1]; MHS rats, 1 mg/kg os, 1st day): -19 mmHg
- Change in HR, 1st day, 5 hrs after dose ([1]; MHS rats, 1 mg/kg os, 1st day): -15 b/min
- Change in BP, 4th day, 1 hr after dose ([1]; MHS rats, 1 mg/kg os, 4th day): -30 mmHg
- Change in HR, 4th day, 1 hr after dose ([1]; MHS rats, 1 mg/kg os, 4th day): -27 b/min
- Change in BP, 4th day, 5 hrs after dose ([1]; MHS rats, 1 mg/kg os, 4th day): -42 mmHg
- Change in HR, 4th day, 5 hrs after dose ([1]; MHS rats, 1 mg/kg os, 4th day): -20 b/min
- Change in BP, 1st day, 1 hr after dose ([1]; MHS rats, 2 mg/kg os, 1st day): -25 mmHg
- Change in HR, 1st day, 1 hr after dose ([1]; MHS rats, 2 mg/kg os, 1st day): -47 b/min
- Change in BP, 1st day, 5 hrs after dose ([1]; MHS rats, 2 mg/kg os, 1st day): -53 mmHg
- Change in HR, 1st day, 5 hrs after dose ([1]; MHS rats, 2 mg/kg os, 1st day): -80 b/min
- Change in BP, 4th day, 1 hr after dose ([1]; MHS rats, 2 mg/kg os, 4th day): -33 mmHg
- Change in HR, 4th day, 1 hr after dose ([1]; MHS rats, 2 mg/kg os, 4th day): -48 b/min
- Change in BP, 4th day, 5 hrs after dose ([1]; MHS rats, 2 mg/kg os, 4th day): -45 mmHg
- Change in HR, 4th day, 5 hrs after dose ([1]; MHS rats, 2 mg/kg os, 4th day): -55 b/min
- Effect on BP ([1]; MHS rats, 0.5, 1 and 2 mg/kg per os, 1st and 4th day): significantly lowers BP on the 1st and 4th day after the treatment
- Antihypertensive activity compared with Hydralazine, 1st day ([1]; MHS rats, 1st day, 355/1165 2 mg/kg, 355/1226 3 mg/kg per os vs Hydralazine 3 mg/kg per os): more marked antihypertensive activity
- Antihypertensive effect compared with Hydralazine, 4th day ([1]; MHS rats, 4th day, 355/1165 2 mg/kg, 355/1226 3 mg/kg per os vs Hydralazine 3 mg/kg per os): even greater effect
- Tolerance after repeated administration ([1]; MHS rats, four days, 355/1165 2 mg/kg, 355/1226 3 mg/kg, 355/1225 and 355/1229 5 mg/kg per os): tolerance does not occur after repeated administration
- Activity compared with α-methyl-DOPA ([1]; MHS rats, 355/1165 2 mg/kg, 355/1226 3 mg/kg per os): 50 times
- LD50 at 168 h [2]: > 1000 mg/kg
- Change in blood pressure after treatment, 30' ([3]; 1 mg/kg os): -21 mmHg
- Change in heart rate after treatment, 30' ([3]; 1 mg/kg os): -25 b/min
- Change in blood pressure after treatment, 60' ([3]; 1 mg/kg os): -29 mmHg
- Change in heart rate after treatment, 60' ([3]; 1 mg/kg os): -45 b/min
- Change in blood pressure after treatment, 120' ([3]; 1 mg/kg os): -33 mmHg
- Change in heart rate after treatment, 120' ([3]; 1 mg/kg os): -52 b/min
- Change in blood pressure after treatment, 240' ([3]; 1 mg/kg os): -26 mmHg
- Change in heart rate after treatment, 240' ([3]; 1 mg/kg os): -8 b/min
- Change in blood pressure after treatment, 360' ([3]; 1 mg/kg os): -23 mmHg
- Change in heart rate after treatment, 360' ([3]; 1 mg/kg os): +18 b/min
- Activity compared with hydralazine ([3]; 1 mg/kg per os): 3 times
- Hypotensive activity ([3]; 1 mg/kg per os): marked and long lasting hypotensive activity
- Effect on heart rate [3]: slight bradycardia and never tachicardia

SMILES: CCOC(=O)C(C#N)CC1CN(C)C2Cc3c[nH]c4cccc(c34)CC12 (stereo not drawn) [355/1166, 2-Cyano-3-[trans-5(10→9)abeo-6-methyl-ergoline-8β]-propionic acid ethyl ester]
- Change in BP, 1st day, 1 hr after dose ([1]; MHS rats, 5 mg/kg os, 1st day): -8 mmHg
- Change in HR, 1st day, 1 hr after dose ([1]; MHS rats, 5 mg/kg os, 1st day): -25 b/min
- Change in BP, 1st day, 5 hrs after dose ([1]; MHS rats, 5 mg/kg os, 1st day): -20 mmHg
- Change in HR, 1st day, 5 hrs after dose ([1]; MHS rats, 5 mg/kg os, 1st day): -25 b/min
- Change in BP, 4th day, 1 hr after dose ([1]; MHS rats, 5 mg/kg os, 4th day): -22 mmHg
- Change in HR, 4th day, 1 hr after dose ([1]; MHS rats, 5 mg/kg os, 4th day): -35 b/min
- Change in BP, 4th day, 5 hrs after dose ([1]; MHS rats, 5 mg/kg os, 4th day): -26 mmHg
- Change in HR, 4th day, 5 hrs after dose ([1]; MHS rats, 5 mg/kg os, 4th day): -20 b/min
- Effect on BP ([1]; MHS rats, 5 mg/kg per os): lowers BP at each recording session, but its effect is more pronounced after the 4th dose
- Effectiveness compared with α-methyl-DOPA ([1]; MHS rats, 5 mg/kg per os): 20 times
- Hypotensive effect compared with Hydralazine, after 4th administration ([1]; MHS rats, 1st and 5th hours after 4th administration, 5 mg/kg per os vs Hydralazine 3 mg/kg per os): greater hypotensive effect
- Activity compared with Hydralazine, 1st day ([1]; MHS rats, 1st day, 5 mg/kg per os vs Hydralazine 3 mg/kg per os): less pronounced activity than Hydralazine
- LD50 at 168 h [2]: > 800 mg/kg
- Change in blood pressure after treatment, 30' ([3]; 5 mg/kg os): 0 mmHg
- Change in heart rate after treatment, 30' ([3]; 5 mg/kg os): -20 b/min
- Change in blood pressure after treatment, 60' ([3]; 5 mg/kg os): -3 mmHg
- Change in heart rate after treatment, 60' ([3]; 5 mg/kg os): -20 b/min
- Change in blood pressure after treatment, 120' ([3]; 5 mg/kg os): -15 mmHg
- Change in heart rate after treatment, 120' ([3]; 5 mg/kg os): -35 b/min
- Change in blood pressure after treatment, 240' ([3]; 5 mg/kg os): -18 mmHg
- Change in heart rate after treatment, 240' ([3]; 5 mg/kg os): -15 b/min
- Change in blood pressure after treatment, 360' ([3]; 5 mg/kg os): -10 mmHg
- Change in heart rate after treatment, 360' ([3]; 5 mg/kg os): -20 b/min
- Effectiveness compared with the reference compound (hydralazine) ([3]; 5 mg/kg per os): less effective than the reference compound
- Effect on heart rate [3]: slight bradycardia and never tachicardia

From patent US4317912A, “Tetracyclic indole derivatives” (Farmitalia Carlo Erba S.p.A., priority 1979, dated 1982)
